Assay [1] concerns the target T1, RNase P holoenzyme from Thermotoga maritima (Thermotoga maritima, UniProt Q9X1H4).
T1 construct: made in house
T1 sequence (Q9X1H4 1-117): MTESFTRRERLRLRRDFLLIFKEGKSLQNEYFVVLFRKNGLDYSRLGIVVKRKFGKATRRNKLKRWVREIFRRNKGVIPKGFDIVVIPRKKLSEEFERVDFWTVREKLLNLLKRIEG
The experiment in a line: Verification of deconvoluted hits by fluorescence- and gel-based assays with Mh substrate. The conditions noted are these: 250 μM (fluorescence) and 500 μM (gel). The assay is classed as biochemical. As for the experimental part: For gel-based activity assays, reactions were prepared as described in the previous section (fluorescence activity assay), incubated for 1–15 min at 37–50°C, then loaded onto a denaturing 7 M urea–20% acrylamide gel in the case of the Mh substrate or 19% acrylamide (40% acrylamide/bisacrylamide 38.5:1.5) for the bipartite pre-tRNA substrate. The activity conditions for the gel reported in Figure 3A, to monitor the cleavage of the holoenzyme and P RNA, were under 100 mM AmOAc and 10 mM MgCl2. The gels (13 × 16 × 0.15 cm) were electrophoresed at 20 V/cm for 2–3 h. UV shadowing or ethidium bromide staining was used to visualize RNA cleavage. Detection of minihelix fluorescence was achieved without staining using a UV lamp with excitation at ∼254 nm.
Screening was performed with the Spectrum Collection (MicroSource Discovery Systems, Inc), which comprises 2560 compounds, each dissolved in DMSO at 10 mM. For our initial screening, compounds from this collection were tested in cocktails; eight compounds were tested per well in 384-well format. The final concentration of each compound in the cocktail was 1.25 mM. For the activity assay, reactions were set up in a total volume of 20 μl (13.5 μl of activity buffer, 1.5 μl of fluorescent Mh at 3.6 μM, 3 μl of DMSO or cocktail). […] The control wells included for each experiment series were: (i) reaction with twice (3 μl) the fluorescent Mh amount to avoid a signal saturation for the rest of the wells, (ii) two reactions with 10% DMSO (no cocktail), (iii) Mh substrate only, with no ribozyme, (iv) reaction with 100 mM CaCl2, which it is used as a negative control as it competes with MgCl2 (EDTA was not used because metal ions are essential to maintaining the structure of P RNA ([41])). The reaction was initiated by adding 2 μl of holoenzyme at 333 nM and monitored as described above. Each round of experiments contained twenty different cocktails corresponding to one row of a 384-well plate (Supplementary Figures S6 and S24). […] At this stage, each compound from the inhibitory cocktails was tested at a final concentration of 1 mM (2 μl of the 10 mM stock). We performed a gel-based assay for the nine selected compounds to qualitatively verify the results obtained by the fluorescence assay (Supplementary Figure S9). After deconvolution, each of the final four potential positive compounds was purchased individually from a different provider (Sigma-Aldrich) and tested inhibition using the T. maritima Mh, pre-tRNA and bipartite pre-tRNA substrates (Figure 2 and Supplementary Figures S10–S12 and S14).
Supplementary Figure 9. Consistent results between fluorescence- and gel-based assays. (A) Plots of fluorescent kinetic assays performed in standard conditions in the presence of the different hits at a concentration of 250 µM (four-fold lower concentration as compared to Supplementary Figure 8). (B) End-point assays of the RNase P holoenzyme from Thermotoga maritima in the presence of the non-fluorescent minihelix substrate and the different inhibitor hits at 500 µM, as assessed by 20% urea-PAGE.
The holoenzyme at 0.5 µM was preincubated at 37° C for 30 minutes in the presence of the individual compounds, centrifuged for 15 minutes at 12000g and incubated with the Mh substrate at 18 µM at 37 °C for 15 minutes. At this stage, iodoquinol was the only compound whose behavior was not corroborated in both assays (panels A and B). […]
experiments reported in this Figure. […] Alexidine […]

Assay [2] deals with T1, RNase P holoenzyme from Thermotoga maritima. Kind of assay: Real-time fluorescence-based (FRET) RNase P activity assay with minihelix (Mh) substrate. The format is biochemical. As to conditions: 100 mM MgCl2. As for the experimental part:
The reconstitution of the RNase P holoenzyme was performed as described in ([40],[19]). This protocol produces a homogeneous and functional ribozyme that can be crystallized by mixing P RNA and P protein in a 1:1.1 molar ratio in 1× TH buffer (33 mM Tris–HCl, 66 mM HEPES, pH 7.4) and 400 mM ammonium acetate (AmOAc). The mixture was heated to 95°C for 2 min in a water bath, then chilled on ice for 2 min, after which MgCl2 was added to a final concentration of 100 mM. […] This higher concentration was used in all experiments described herein. The holoenzyme was further incubated at 50°C for 10 min and 37°C for 40 min. The final concentration of holoenzyme was 333 nM (35.6 μg/ml of P RNA and 4.7 μg/ml of P protein).
The minihelix (Mh) substrate (Figure 1A) was adopted from a previously characterized RNase P substrate, pMini3bpUG ([32],[33]) and coupled to either Black Hole Quencher 1 (BHQ1) or Black Hole Quencher 2 (BHQ2) at the 5′-end and Alexa Fluor 488 at the 3′-end. This probe was purchased either from Sigma-Aldrich or Integrated DNA Technologies (IDT). A requested scale of […] yielded between 6.3 and 20 nmol (57.5 to 181 μg, enough for 1300–4000 reactions depending on the experimental substrate concentration). Before use, the minihelix was diluted from a 100 μM stock (dissolved in water) to 3.6 μM in activity buffer H (33 mM Tris–HCl, 66 mM HEPES, pH 7.4, 400 mM AmOAc and 100 mM MgCl2).
Reactions were performed in a total volume of 20 μl. Pipetting was done by hand using multichannel pipettes. First, an 18 μl reaction mixture containing 16.5 μl of activity buffer (H for Mh or L supplemented with 10% PEG 200 for bipartite pre-tRNA) and 270 nM (Mh) or 135 nM (bipartite pre-tRNA) (1.5 or 0.7 μl of the 3.6 μM stock) of the fluorescent substrate probe was pre-incubated on ice for at least 5 m in a black polystyrene 384-well microtiter microplate with a flat transparent bottom (Corning ref 3540). The holoenzyme was then added at a final concentration of 33 nM (2 μl of a 333 nM stock) in 1× TH buffer and mixed. Kinetic activity was monitored in a Synergy MX Multimode Detector (BioTek) at 37°C with rapid agitation. At least 20 readings were taken per well every 15 s. The probe was excited at 485 nm, and its emission was monitored at 535 nm with an integration time of 1 s. From the plots of relative fluorescent units (RFU) versus time, linear regression was used to determine the slopes in the linear portion of the curves, using at least 12 data points to obtain initial velocities. Non-linear fitting to obtain the Michaelis–Menten parameters was performed using GraphPad Prism® 6.01 software.
Supplementary Figure 3. FRET assays of RNase P with the fluorescent substrate are reproducible. (A) Representative plots of kinetic assays performed in a single run. The standard assay (SA), (+), was performed at 37° C in a total volume of 20 µL and contained RNase P holoenzyme at 33 nM, substrate minihelix (Mh) at 270 nM, 10% DMSO and activity buffer (AB).
The negative control assay (-) contained 100 mM CaCl2 in place of MgCl2. Ten to twelve wells were monitored simultaneously in a typical assay. (B) Zoomed view of the linear region of the kinetic assays shown in panel A. Fluorescence readings were performed every 15-20 seconds.
Linear regression calculations were done using the GraphPad Prism 7 software. (C) The coefficient Z’-factor (1) was used as an indicator of reproducibility and was calculated based on the relative fluorescence units (RFU) in the plateau phase (taken at 20 minutes). The Z’-factor has a […]
presented in this work were either measured in triplicate or confirmed in subsequent assays. (D) […]
assay is robust. The IC50 values reported in Figures 1C and 2 were calculated according to this kinetic parameter. There is a negative drift in fluorescence in the case of the negative control.
However, it should be noted that the mean value of it (-279) is much smaller than the signal of the […]
positive control (3397). […]

Another assay addresses minihelix (Mh). Kind of assay: Biolayer interferometry binding to biotinylated minihelix substrate. As to conditions: BLI. Here is the method: 3′-Biotinylated minihelix was purchased from Integrated DNA Technologies (IDT) (24-mer RNA sequence, 5′-[…]-3′-Biotin). The biotinylated minihelix was immobilized on Super Streptavidin (SSA) biosensors at a concentration of 10 μM. […] For the titration experiments, 10 μM of 3′-biotinylated minihelix was immobilized for 300 s on Super Streptavidin (SSA) biosensors, followed by a wash step of 100 s and association and dissociation steps of 200 s in the presence of 6 different concentrations of compound ranging from 500 to 15.6 μM. SSA biosensors with no minihelix were used to measure non-specific binding of compounds. All other parameters (buffer, instrument control, analysis) are as described above.
Supplementary Figure 16. Binding assays monitor the interaction of compounds with the minihelix (Mh). Gentian violet and methylene blue bind in a dose-dependent relationship to the artificial minihelix substrate. […]
interaction between the minihelix and (A) gentian violet (KD=8 µM ) and (B) methylene blue A 3′-biotinylated substrate minihelix at 10 µ M was immobilized on super streptavidin (SSA) biosensors for 300 s.
Supplementary Figure 17. pre-tRNA displaces bound purpurin in a dose-response […]
indicating a true competition between purpurin and pre-tRNA binding sites. […]
A general note: Biolayer interferometry detects binding as a change in optical thickness at a sensor tip.

For a further assay, the target named is T2, P protein (Thermotoga maritima, UniProt Q9X1H4).
T2 construct: GST (cleaved yes); made in house; host or cells: E. coli BL21(DE3)pLysS
T2 sequence (Q9X1H4 1-117): T1 sequence (Q9X1H4 1-117)
The experiment in a line: Binding hindrance of the 5′ RNA leader to the P protein (BLI). Set-up: species or system T. maritima. The conditions noted are these: compound 100 μM, 5′ RNA leader 5 μM. As for the experimental part:
A 5′ RNA leader sequence with 10-bases 5′-GGAAAAAGAU-3′ was purchased from IDT and used at a concentration of 5 μM. This sequence is the same used to obtain the crystal structure of the RNase P holoenzyme ([19]). The His-tagged P protein was immobilized on Ni-NTA biosensors at 0.05 mg/ml (3.4 μM). […] The steps performed on the assay and their periods were: P protein immobilization (400 s), wash (100 s), baseline […] (1000 rpm), compound association (800 s), compound dissociation (200 s) (500 rpm), baseline (100 s), 5′ leader association (200 s), 5′ leader dissociation (200 s) (1000 rpm). The assay was performed at 30°C. The compounds were used at 100 μM throughout. All assay steps were performed in 20 mM HEPES pH 7.4, 100 mM ammonium acetate, 10 mM MgCl2, 5% DMSO.
5 ′ RNA leader. (A) Experimental design of 5′ RNA leader binding hindrance experiments. Figures B-F are based on the analysis region depicted in panel A, where association and dissociation of the 5′ RNA leader to the P protein (TmP) is measured over time. P protein at 3.5 µM was immobilized on Ni-NTA biosensors for 300 s, while compounds were assayed at 100 µM and the […]
binding, in contrast with hematein (E) and purpurin (F).
(1 picture or pasted object on this page, not shown here)

Assay [3] concerns 3'-biotinylated minihelix (Mh; pMini3bpUG) (RNA, hairpin) GAUCUGAAUGCGGAAACGCGCCAC
The experiment in a line: biolayer interferometry. As to conditions: Mg2+ 10 mM, NH4+ 100 mM (ammonium acetate); 20 mM HEPES pH 7.4, DMSO, 30°C; compound 15.6-500 µM.

Broadly, the IC50 is the point on the concentration scale where inhibition reaches its midpoint. The Kd is the free concentration of one partner at which half of the binding sites on the other are occupied at equilibrium, for simple one-to-one binding. Usually KD stands for the constant that tells how readily two partners part at equilibrium.

The structures appear in SMILES notation. Several values for one entry are separate records, joined by “and”; a condition that tells them apart may be missing. Equal entries are not always repeated. Structures can show the parent of a compound that is named as a salt.

In the case of `Oc1c(I)cc(I)c2cccnc12` [iodoquinol, reference compound], the “Inhibition of RNase P in fluorescence and gel verification” value in assay [1] was “false positive”.
As to `NC[C@@H]1O[C@H](O[C@H]2[C@@H](O)[C@H](O[C@@H]3[C@@H](O)[C@H](N)C[C@H](N)[C@H]3O[C@H]3O[C@H](CN)[C@@H](O)[C@H](O)[C@H]3N)O[C@@H]2CO)[C@H](N)[C@@H](O)[C@@H]1O` [neomycin B, reference compound], in assay [2], the “Inhibition of RNase P (Mh fluorescence assay)” value is on record as “did not detect inhibition”.
`O=C(N/N=C/c1ccc([N+](=O)[O-])o1)c1cc([N+](=O)[O-])cc([N+](=O)[O-])c1O` [nifursol, reference compound]: the “Inhibition of RNase P in fluorescence and gel verification” value in assay [1] is “weak inhibitor”.
Turning to `CCCCC(CC)CNC(=N)NC(=N)NCCCCCCNC(=N)NC(=N)NCC(CC)CCCC` (stereo not drawn) [alexidine hydrochloride], the “Inhibition of RNase P in fluorescence and gel verification” value in assay [1] is “seems to precipitate the holoenzyme”.
For `Cc1cc(O)c2c(c1)C(=O)c1cc(O)cc(O)c1C2=O` [emodin], the “Inhibition of RNase P in fluorescence and gel verification” value in assay [1] was “did not inhibit RNase P”.
`CN(C)c1ccc2nc3ccc(=[N+](C)C)cc-3sc2c1` [methylene blue, reference compound]: in assay [2] (fluorescent Mh substrate 270 nM, holoenzyme 33 nM, 10% DMSO, 37°C, 400 mM AmOAc), the IC50 was 110 µM and 109 µM. For the same molecule, the affinity at minihelix (Mh) (3′-biotinylated minihelix 10 μM on SSA biosensors), expressed as Kd, was 35 µM. Moreover, the “Binding to the minihelix substrate” value in the assay on minihelix (Mh) (initial screening at 1 mM and titration) is on record as “binding signal”. Also, the “Hindrance of 5′ RNA leader binding to the P protein” value at P protein was “did not interfere with RNA leader”. Moreover, the KD in assay [3] is on record as 35 µM.
As for `NC[C@H]1O[C@H](O[C@H]2[C@H](O)[C@@H](O[C@H]3O[C@H](CO)[C@@H](O)[C@H](N)[C@H]3O)[C@H](N)C[C@@H]2N)[C@H](N)[C@@H](O)[C@@H]1O` [kanamycin B, reference compound], in assay [2], the “Inhibition of RNase P (Mh fluorescence assay)” value is listed as “did not detect inhibition”.
As to `N=C1C=CC(=C(c2ccc(N)cc2)c2ccc(N)cc2)C=C1` [Pararoseaniline], the “Inhibition of RNase P in fluorescence and gel verification” value in assay [1] was “did not inhibit RNase P”.

For the origin of these results see article PMC6614837 (Nucleic Acids Research, 2019).
